From patent publication US20150352164A1, “COMPOSITION COMPRISING THEANINE AND AN EXTRACT OF INULA RACEMOSA” (CONOPCO, INC., D/B/A UNILEVER, priority 2012, published 2015)

Tested on: 3T3L1 (mouse preadipocytes), differentiated to mature adipocytes; adiponectin secretion
Test: Adiponectin assay: adiponectin secretion from differentiated 3T3L1 adipocytes, ELISA of supernatants
Type: cell-based
Conditions: for % of adiponectin (control cells taken as hundred): 48 hrs
Method: Adiponectin Assay Protocol • 3T3L1 (mouse preadipocytes) were plated on a 96 well plate at a density of 3*10^3 cells per well; • After 5 days of post confluency (a condition where the cells form a uniform layer) the cells were differentiated (a process where premature adipocytes are transformed to mature adipocytes) in differentiation medium for 10 days; • On the 11th day the matured adipocytes were treated with non cytotoxic concentrations (concentrations stated below) of the inula racemosa extract and theanine; • The cells were incubated for 48 hrs and supernatants were collected and stored. They were analysed to detect level of Adiponectin by ELISA; • The efficacy of the test ingredient was evaluated with respect to the untreated control (media control); • If any of the tested combinations of inula racemosa extract and theanine on increased adiponectin level was larger in a statistically significant way than the additive effect or individual components, then the particular combination is considered to be synergistic. To investigate the efficacy of inula racemosa and theanine in increasing adiponectin secretion from 3T3L1, the cells were treated with varying concentrations of inula racemosa (as obtained set out herein in the Materials section) and theanine in cell culture medium. The % of adiponectin from control cells were taken as hundred, upon which the treatment values were calculated. […] A range of combination varying amounts of inula racemosa extract and theanine were investigated on its joint ability for adiponectin secretion. The combinations used were (weight ratio's theanine:inula racemosa extract): 100:1 ([…]), 100:10,000 (H). This was achieved via dissolution of the components in aqueous stock solutions.

CCNC(=O)CCC(N)C(=O)O (stereo not shown) [Theanine, 2-Amino-4-(ethylcarbamoyl)butyric acid]
% of adiponectin (control cells taken as hundred) (0.00001% wt of inula r. extract or theanine in cell culture medium): 106.7 +/− 7.4% | % of adiponectin (control cells taken as hundred) (0.00002% wt of inula r. extract or theanine in cell culture medium): 107.0 +/− 7.0% | % of adiponectin (control cells taken as hundred) (0.00005% wt of inula r. extract or theanine in cell culture medium): 136.7 +/− 7.3% | % of adiponectin (control cells taken as hundred) (0.0001% wt of inula r. extract or theanine in cell culture medium): 141.7 +/− 1.6% | % of adiponectin (control cells taken as hundred) (0.0005% wt of inula r. extract or theanine in cell culture medium): 145.8 +/− 8.2% | % of adiponectin (control cells taken as hundred) (0.001% wt of inula r. extract or theanine in cell culture medium): 156.0 +/− 8.5% | adiponectin levels, in-vitro, separately (varying concentrations, 3T3L1 cells): increased adiponectin levels
